PubChem BioAssay AID248 (DTP/NCI, 2004)
Values joined by “and” are separate entries in the source; they are usually repeats but may differ in a detail not shown here. Equal entries are not always repeated. Inconclusive results and toxic doses are left out. Cut-off read from the data, not from the text of the source: active = T/C of 150% or more; inactive = T/C below 125%.

System: L1210 leukemia ip in BDF1 mice, survival T/C
Assay: NCI In Vivo Anticancer Drug Screen. Data for tumor model L1210 Leukemia (intraperitoneal) in B6D2F1 (BDF1) mice
Conditions: endpoint: mean survival time, higher = longer survival
In short: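 Survival endpoint. Drug-treated group vs vehicle group, expressed as T divided by C. Tumor passaged by transplantation.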

[1] = dose: 100.0 mg/kg/injection, schedule: Q01DX001 (ip), vehicle: saline with Tween-80
[2] = dose: 200.0 mg/kg/injection, schedule: Q01DX001 (ip), vehicle: saline with Tween-80
[3] = dose: 400.0 mg/kg/injection, schedule: Q01DX001 (ip), vehicle: saline with Tween-80
[4] = dose: 25.0 mg/kg/injection, schedule: Q04DX002 (ip), vehicle: Klucel (hydroxypropylcellulose) (HPC)
[5] = dose: 50.0 mg/kg/injection, schedule: Q04DX002 (ip), vehicle: Klucel (hydroxypropylcellulose) (HPC)
[6] = dose: 100.0 mg/kg/injection, schedule: Q04DX002 (ip), vehicle: Klucel (hydroxypropylcellulose) (HPC)
[7] = dose: 100.0 mg/kg/injection, schedule: Q04DX003 (ip), vehicle: saline
[8] = dose: 200.0 mg/kg/injection, schedule: Q04DX003 (ip), vehicle: saline
[9] = dose: 100.0 mg/kg/injection, schedule: Q01DX001 (ip), vehicle: saline
[10] = dose: 400.0 mg/kg/injection, schedule: Q01DX001 (ip), vehicle: saline
[11] = dose: 200.0 mg/kg/injection, schedule: Q01DX001 (ip), vehicle: saline
[12] = dose: 100.0 mg/kg/injection, schedule: Q01DX009 (ip), vehicle: saline with Tween-80
[13] = dose: 200.0 mg/kg/injection, schedule: Q01DX009 (ip), vehicle: saline with Tween-80
[14] = dose: 400.0 mg/kg/injection, schedule: Q01DX009 (ip), vehicle: saline with Tween-80
[15] = dose: 50.0 mg/kg/injection, schedule: Q01DX009 (ip), vehicle: saline
[16] = dose: 100.0 mg/kg/injection, schedule: Q01DX009 (ip), vehicle: saline
[17] = dose: 200.0 mg/kg/injection, schedule: Q01DX009 (ip), vehicle: saline

Measured: T/C

CC(C)c1ccc2c(c1)CC[C@H]1[C@](C)(C(=O)O)CCC[C@]21C
inactive: [1] 101 % of control | [2] 105 % of control | [3] 105 % of control

Cc1cc(C(=O)/C=C(\C(=O)c2ccccc2)c2ccccc2)ccc1Cl
inactive: dose: 12.5 mg/kg/injection, schedule: Q04DX002 (ip), vehicle: Klucel (hydroxypropylcellulose) (HPC) 98 % of control | [4] 119 % of control | [5] 94 % of control | [6] 86 % of control

COc1cc2ccc3c(c2cc1OC)C(=O)CNC3C (centres undefined)
inactive: dose: 12.5 mg/kg/injection, schedule: Q04DX003 (ip), vehicle: saline 100 % of control | dose: 50.0 mg/kg/injection, schedule: Q04DX003 (ip), vehicle: Klucel (hydroxypropylcellulose) (HPC) 114 % of control | dose: 100.0 mg/kg/injection, schedule: Q04DX003 (ip), vehicle: Klucel (hydroxypropylcellulose) (HPC) 98 % of control | dose: 200.0 mg/kg/injection, schedule: Q04DX003 (ip), vehicle: Klucel (hydroxypropylcellulose) (HPC) 106 % of control | dose: 400.0 mg/kg/injection, schedule: Q04DX003 (ip), vehicle: Klucel (hydroxypropylcellulose) (HPC) 101 % of control

CC(=O)c1ccc2ccc3ccccc3c2c1
inactive: dose: 75.0 mg/kg/injection, schedule: Q01DX009 (ip), vehicle: saline 98 % of control | [7] 98 % of control | dose: 150.0 mg/kg/injection, schedule: Q01DX009 (ip), vehicle: saline 98 % of control | [8] 101 % of control | dose: 300.0 mg/kg/injection, schedule: Q01DX009 (ip), vehicle: saline 95 % of control | dose: 400.0 mg/kg/injection, schedule: Q04DX003 (ip), vehicle: saline 101 % of control

CNC(=O)Oc1ccc(Br)cc1Br
inactive: dose: 100.0 mg/kg/injection, schedule: Q01DX009 (ip), vehicle: Klucel (hydroxypropylcellulose) (HPC) 101 % of control | dose: 200.0 mg/kg/injection, schedule: Q01DX009 (ip), vehicle: Klucel (hydroxypropylcellulose) (HPC) 100 % of control

C=CCc1ccc(OCCOCCN(C/C=C(\C)CCC=C(C)C)C/C=C(\C)CCC=C(C)C)c(OC)c1
inactive: [4] 108 % of control | [5] 96 % of control | [6] 99 % of control

O=c1c2ncn(C3OC(CO)C(O)C3O)c2nc2n1N=CC(O)N2 (centres undefined)
inactive: dose: 100.0 mg/kg/injection, schedule: Q01DX005 (ip), vehicle: saline 120 % of control | dose: 200.0 mg/kg/injection, schedule: Q01DX005 (ip), vehicle: saline 120 % of control

CC1(/C=N\NC(=O)CCCC(=O)N/N=C/C2(C)CCC=CO2)CCC=CO1 (centres undefined)
inactive: [9] 92 % of control | [10] 97 % of control

COC(=O)c1[nH]cnc1/N=N/N(C)C1CCCCC1
inactive: dose: 100.0 mg/kg/injection, schedule: Q01DX001 (ip), vehicle: carboxymethylcellulose (CMC) 91 % of control | dose: 200.0 mg/kg/injection, schedule: Q01DX001 (ip), vehicle: carboxymethylcellulose (CMC) 102 % of control

[O-][n+]1ccccc1/C=C\c1ccccc1
inactive: [9] 92 % of control | [11] 94 % of control

Cc1ccc2c(C)nc(N=C(N)N)nc2c1
inactive: dose: 18.8 mg/kg/injection, schedule: Q04DX003 (ip), vehicle: saline 96 % of control | dose: 37.5 mg/kg/injection, schedule: Q04DX003 (ip), vehicle: saline 100 % of control | dose: 75.0 mg/kg/injection, schedule: Q01DX001 (ip), vehicle: saline 103 % of control | dose: 75.0 mg/kg/injection, schedule: Q04DX003 (ip), vehicle: saline 97 % of control

COC(=O)NC(C)(NC(=O)OC)C(=O)OC
inactive: [12] 104 % of control | [13] 106 % of control | [14] 97 % of control

COc1ccc(/C=C/C(=N\O)c2ccc(OC)c(OC)c2)cc1OC
inactive: dose: 25.0 mg/kg/injection, schedule: Q01DX009 (ip), vehicle: saline 86 % of control | [15] 98 % of control | [16] 98 % of control | [17] 100 % of control | dose: 400.0 mg/kg/injection, schedule: Q01DX009 (ip), vehicle: saline 98 % of control

CC(C)=CCCC(C)C1CCC2C3CC=C4CC(O)CCC4(C)C3CCC12C (centres undefined)
inactive: [1] 91 % of control | [2] 95 % of control | [3] 95 % of control

c1ccc(N2CCN(c3ccccc3)CC2)cc1
inactive: [12] 98 % of control | [13] 86 % of control

O=[N+]([O-])Nc1cc(Cl)nc(Cl)c1
inactive: dose: 75.0 mg/kg/injection, schedule: Q01DX001 (ip), vehicle: carboxymethylcellulose (CMC) 105 % of control | dose: 150.0 mg/kg/injection, schedule: Q01DX001 (ip), vehicle: carboxymethylcellulose (CMC) 97 % of control

CC(O)c1cc(Cl)ccc1Cl (centres undefined)
inactive: [12] 87 % of control | dose: 100.0 mg/kg/injection, schedule: Q04DX003 (ip), vehicle: saline with Tween-80 101 % of control and 107 % of control | [13] 103 % of control | dose: 200.0 mg/kg/injection, schedule: Q04DX003 (ip), vehicle: saline with Tween-80 107 % of control | [14] 92 % of control | dose: 400.0 mg/kg/injection, schedule: Q04DX003 (ip), vehicle: saline with Tween-80 98 % of control and 92 % of control

O=C(OC(=O)c1cccc2ccccc12)c1cccc2ccccc12
inactive: [9] 94 % of control | [11] 102 % of control | [10] 94 % of control

CN1CCC2(CC1)C(=O)N(c1ccccc1)C(=O)C2c1ccccc1 (centres undefined)
inactive: dose: 100.0 mg/kg/injection, schedule: Q01DX001 (ip), vehicle: Klucel (hydroxypropylcellulose) (HPC) 102 % of control | dose: 200.0 mg/kg/injection, schedule: Q01DX001 (ip), vehicle: Klucel (hydroxypropylcellulose) (HPC) 98 % of control

O=C1OC(=O)C2C3C=CC3C12 (centres undefined)
inactive: [6] 95 % of control | dose: 200.0 mg/kg/injection, schedule: Q04DX002 (ip), vehicle: Klucel (hydroxypropylcellulose) (HPC) 100 % of control | dose: 400.0 mg/kg/injection, schedule: Q04DX002 (ip), vehicle: Klucel (hydroxypropylcellulose) (HPC) 92 % of control

O=C(CCC[n+]1ccccc1)CC(O)(C(F)(F)F)C(F)(F)F
inactive: [15] 105 % of control | [16] 103 % of control | [7] 103 % of control | [17] 100 % of control | [8] 106 % of control
